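Each compound was tested at five concentrations against cells in 96-well plates for 48 hours. Abbreviation: GI50, concentration required for 50% inhibition of growth.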 Activity calls are given as the source filed them. No stated cut-off is given here; in the data, active = GI50 up to about 1.1 µM and inactive = higher.
Experiments:
Assay in all cases: NCI-60 cell line screen, 48 h
SR = test system: SR
EKVX = test system: EKVX
HT-29 = test system: HT-29
SK-MEL-2 = test system: SK-MEL-2
M19-MEL = test system: M19-MEL
COLO 205 = test system: COLO 205
ACHN = test system: ACHN
HCT-15 = test system: HCT-15
UO-31 = test system: UO-31
NCI-H460 = test system: NCI-H460
NCI-H226 = test system: NCI-H226
NCI-H23 = test system: NCI-H23
SK-MEL-5 = test system: SK-MEL-5
A549 = test system: A549
SF-539 = test system: SF-539
OVCAR-3 = test system: OVCAR-3
SNB-75 = test system: SNB-75
IGROV-1 = test system: IGROV-1
HOP-62 = test system: HOP-62
CAKI-1 = test system: CAKI-1
M14 = test system: M14
SF-268 = test system: SF-268
RPMI-8226 = test system: RPMI-8226
HL-60 = test system: HL-60
SK-OV-3 = test system: SK-OV-3
HCC 2998 = test system: HCC 2998
UACC-257 = test system: UACC-257
LXFL 529 = test system: LXFL 529
OVCAR-5 = test system: OVCAR-5
TK-10 = test system: TK-10
SW-620 = test system: SW-620
SN12C = test system: SN12C
OVCAR-8 = test system: OVCAR-8
786-0 = test system: 786-0
HCT-116 = test system: HCT-116
RXF 393 = test system: RXF 393
NCI-H522 = test system: NCI-H522
Malme-3M = test system: Malme-3M
CCRF-CEM = test system: CCRF-CEM
SK-MEL-28 = test system: SK-MEL-28
KM-20L2 = test system: KM-20L2
LOX IMVI = test system: LOX IMVI
UACC-62 = test system: UACC-62
SF-295 = test system: SF-295
U-251 = test system: U-251
SNB-19 = test system: SNB-19
DLD-1 = test system: DLD-1
K562 = test system: K562
MOLT-4 = test system: MOLT-4
SNB-78 = test system: SNB-78
DMS-273 = test system: DMS-273
DMS-114 = test system: DMS-114
HOP-92 = test system: HOP-92
KM12 = test system: KM12
A498 = test system: A498
OVCAR-4 = test system: OVCAR-4
NCI/ADR-RES = test system: NCI/ADR-RES
MCF7 = test system: MCF7
MDA-MB-435 = test system: MDA-MB-435
Hs-578T = test system: Hs-578T
DU-145 = test system: DU-145
T47D = test system: T47D
PC-3 = test system: PC-3
BT-549 = test system: BT-549
MDA-N = test system: MDA-N
MDA-MB-231 = test system: MDA-MB-231

With `COc1c(C(C)C)cc2c3c1OC(=O)[C@@]31CCCC(C)(C)C1CC2` (stereo not given in full) the GI50 (SR) was 16.9 µM (inactive), the GI50 (EKVX) was 14.6 µM (inactive) and the GI50 (HT-29) was 25.5 µM (inactive). The GI50 (SK-MEL-2) was 28.1 µM (inactive), the GI50 (M19-MEL) was 23.6 µM (inactive) and the GI50 (COLO 205) was 17.3 µM (inactive). For the same compound, the GI50 (ACHN) was 52.5 µM (inactive), the GI50 (HCT-15) was 55.7 µM and the GI50 (UO-31) was 11.7 µM (inactive). The GI50 (NCI-H460) was 40.7 µM (inactive), the GI50 (NCI-H226) was 4.92 µM (inactive) and the GI50 (NCI-H23) was 20 µM (inactive). The GI50 (SK-MEL-5) was 11.2 µM (inactive), the GI50 (A549) was 13.6 µM (inactive) and the GI50 (SF-539) was 14 µM (inactive). For the same compound, the GI50 (OVCAR-3) was 20.5 µM (inactive), the GI50 (SNB-75) was 22 µM (inactive) and the GI50 (IGROV-1) was 23.1 µM (inactive). The GI50 (HOP-62) was 39.4 µM (inactive), the GI50 (CAKI-1) was > 100 µM (inactive) and the GI50 (M14) was 33.5 µM (inactive). The GI50 (SF-268) was 28.7 µM (inactive), the GI50 (RPMI-8226) was 18.9 µM (inactive) and the GI50 (HL-60) was 14.2 µM (inactive). For the same compound, the GI50 (SK-OV-3) was 23.8 µM (inactive), the GI50 (HCC 2998) was 50.2 µM (inactive) and the GI50 (UACC-257) was 20.3 µM (inactive). For the same compound, the GI50 (LXFL 529) was 16.6 µM (inactive), the GI50 (OVCAR-5) was 52.4 µM (inactive) and the GI50 (TK-10) was 25.2 µM (inactive). The GI50 (SW-620) was 26.4 µM (inactive), the GI50 (SN12C) was 51.9 µM (inactive) and the GI50 (OVCAR-8) was 17.7 µM (inactive). For the same compound, the GI50 (786-0) was 46.7 µM (inactive), the GI50 (HCT-116) was 9.2 µM (inactive) and the GI50 (RXF 393) was 17.3 µM (inactive). For the same compound, the GI50 (NCI-H522) was 9.18 µM (inactive), the GI50 (Malme-3M) was 27.2 µM (inactive) and the GI50 (CCRF-CEM) was 18.5 µM (inactive). For the same compound, the GI50 (SK-MEL-28) was 27.4 µM (inactive), the GI50 (KM-20L2) was 30.4 µM (inactive) and the GI50 (LOX IMVI) was 12.5 µM (inactive). The GI50 (UACC-62) was 24.4 µM (inactive), the GI50 (SF-295) was 24.5 µM (inactive) and the GI50 (U-251) was 20 µM (inactive). For the same compound, the GI50 (SNB-19) was 5.78 µM (inactive), the GI50 (DLD-1) was 69.8 µM (inactive) and the GI50 (K562) was 20.4 µM (inactive). For the same compound, the GI50 (MOLT-4) was 25.1 µM (inactive), the GI50 (SNB-78) was 23.3 µM (inactive) and the GI50 (DMS-273) was 23.4 µM (inactive).
With `C=C1C(=O)OC2C1CC[C@H](C)C13OC(=O)CC1[C@@]23C` (stereo not given in full) the GI50 (SR) was > 100 µM (inactive), the GI50 (EKVX) was > 100 µM (inactive) and the GI50 (HT-29) was > 100 µM (inactive). For the same compound, the GI50 (SK-MEL-2) was > 100 µM (inactive), the GI50 (M19-MEL) was > 100 µM (inactive) and the GI50 (COLO 205) was > 100 µM (inactive). The GI50 (ACHN) was > 100 µM (inactive), the GI50 (DMS-114) was > 100 µM (inactive) and the GI50 (UO-31) was > 100 µM (inactive). The GI50 (NCI-H460) was > 100 µM (inactive), the GI50 (NCI-H226) was > 100 µM (inactive) and the GI50 (NCI-H23) was > 100 µM (inactive). The GI50 (SK-MEL-5) was > 100 µM (inactive), the GI50 (A549) was > 100 µM (inactive) and the GI50 (SF-539) was > 100 µM (inactive). For the same compound, the GI50 (OVCAR-3) was > 100 µM (inactive), the GI50 (SNB-75) was > 100 µM (inactive) and the GI50 (IGROV-1) was > 100 µM (inactive). The GI50 (CAKI-1) was > 100 µM (inactive), the GI50 (SF-268) was > 100 µM (inactive) and the GI50 (RPMI-8226) was > 100 µM (inactive). The GI50 (HL-60) was > 100 µM (inactive), the GI50 (SK-OV-3) was > 100 µM (inactive) and the GI50 (HCC 2998) was > 100 µM (inactive). The GI50 (UACC-257) was > 100 µM (inactive), the GI50 (LXFL 529) was > 100 µM (inactive) and the GI50 (OVCAR-5) was > 100 µM (inactive). The GI50 (TK-10) was > 100 µM (inactive), the GI50 (SW-620) was > 100 µM (inactive) and the GI50 (SN12C) was > 100 µM (inactive). For the same compound, the GI50 (HOP-92) was > 100 µM (inactive), the GI50 (KM12) was > 100 µM (inactive) and the GI50 (OVCAR-8) was > 100 µM (inactive). The GI50 (786-0) was > 100 µM (inactive), the GI50 (HCT-116) was > 100 µM (inactive) and the GI50 (RXF 393) was > 100 µM (inactive). The GI50 (NCI-H522) was 48.3 µM (inactive), the GI50 (Malme-3M) was > 100 µM (inactive) and the GI50 (CCRF-CEM) was > 100 µM (inactive). For the same compound, the GI50 (SK-MEL-28) was > 100 µM (inactive), the GI50 (UACC-62) was > 100 µM (inactive) and the GI50 (SF-295) was > 100 µM (inactive). For the same compound, the GI50 (U-251) was > 100 µM (inactive), the GI50 (SNB-19) was > 100 µM (inactive) and the GI50 (A498) was > 100 µM (inactive). For the same compound, the GI50 (DLD-1) was > 100 µM (inactive), the GI50 (K562) was > 100 µM (inactive) and the GI50 (MOLT-4) was > 100 µM (inactive). For the same compound, the GI50 (SNB-78) was > 100 µM (inactive) and the GI50 (DMS-273) was > 100 µM (inactive).
With `Clc1ccc(COc2ccccc2/C=N/c2c(-c3ccco3)nc3ccccn23)c(Cl)c1` the GI50 (SR) was 10.2 µM (inactive), the GI50 (EKVX) was 17.4 µM (inactive) and the GI50 (HT-29) was 31.9 µM (inactive). For the same compound, the GI50 (OVCAR-4) was 24.9 µM (inactive), the GI50 (SK-MEL-2) was 20.2 µM (inactive) and the GI50 (COLO 205) was 38.9 µM (inactive). For the same compound, the GI50 (ACHN) was > 100 µM (inactive), the GI50 (NCI/ADR-RES) was 30.6 µM (inactive) and the GI50 (HCT-15) was 23.3 µM. The GI50 (MCF7) was 12.5 µM (inactive), the GI50 (MDA-MB-435) was 14.5 µM (inactive) and the GI50 (UO-31) was 39.3 µM (inactive). The GI50 (NCI-H460) was 71 µM (inactive), the GI50 (NCI-H226) was 25.7 µM (inactive) and the GI50 (NCI-H23) was 32.3 µM (inactive). For the same compound, the GI50 (SK-MEL-5) was 15.8 µM (inactive), the GI50 (A549) was > 100 µM (inactive) and the GI50 (SF-539) was 21.1 µM (inactive). For the same compound, the GI50 (OVCAR-3) was 37.8 µM (inactive), the GI50 (SNB-75) was 23.4 µM (inactive) and the GI50 (Hs-578T) was 36.9 µM (inactive). For the same compound, the GI50 (IGROV-1) was 25.2 µM (inactive), the GI50 (HOP-62) was 32.9 µM (inactive) and the GI50 (CAKI-1) was 32.5 µM (inactive). The GI50 (DU-145) was 25.8 µM (inactive), the GI50 (M14) was 26.1 µM (inactive) and the GI50 (SF-268) was 39.3 µM (inactive). The GI50 (T47D) was 24.7 µM (inactive), the GI50 (RPMI-8226) was 29.9 µM (inactive) and the GI50 (HL-60) was 27 µM (inactive). The GI50 (SK-OV-3) was > 100 µM (inactive), the GI50 (HCC 2998) was 95.9 µM (inactive) and the GI50 (UACC-257) was 39.1 µM (inactive). For the same compound, the GI50 (OVCAR-5) was > 100 µM (inactive), the GI50 (TK-10) was 36.2 µM (inactive) and the GI50 (PC-3) was 39.8 µM (inactive). For the same compound, the GI50 (SW-620) was 26.2 µM (inactive), the GI50 (SN12C) was 25.8 µM (inactive) and the GI50 (HOP-92) was 13 µM (inactive). The GI50 (KM12) was 36.8 µM (inactive), the GI50 (OVCAR-8) was 26.5 µM (inactive) and the GI50 (786-0) was 28.2 µM (inactive). The GI50 (HCT-116) was 17.5 µM (inactive), the GI50 (RXF 393) was 20.9 µM (inactive) and the GI50 (NCI-H522) was > 100 µM (inactive). The GI50 (Malme-3M) was 36.5 µM (inactive), the GI50 (BT-549) was 30 µM (inactive) and the GI50 (CCRF-CEM) was 12.9 µM (inactive). The GI50 (SK-MEL-28) was 66.4 µM (inactive), the GI50 (LOX IMVI) was 17.1 µM (inactive) and the GI50 (UACC-62) was 33.3 µM (inactive). For the same compound, the GI50 (SF-295) was 39.9 µM (inactive), the GI50 (MDA-N) was 23 µM (inactive) and the GI50 (U-251) was 33.7 µM (inactive). For the same compound, the GI50 (SNB-19) was 44.1 µM (inactive), the GI50 (A498) was > 100 µM (inactive) and the GI50 (K562) was 28.4 µM (inactive). The GI50 (MOLT-4) was 31.9 µM (inactive) and the GI50 (MDA-MB-231) was 20.2 µM (inactive).
